Measurements: patent US20080107625A1, “Inhibitors of Hepatitis C Virus” (Bristol-Myers Squibb Company, priority 2006, published 2008)

Tested on: HCV replicon (Renilla luciferase reporter) in HUH-7 cells
Test: HCV replicon luciferase reporter assay
Assay type: cell-based, HCV strain 1b
Settings: Huh-7, 96 h; 4 days
Excerpt: An HCV replicon whole cell system was established as described by Lohmann V, Korner F, Koch J, Herian U, Theilmann L, Bartenschlager R., Science 285(5424): 110-3 (1999). This system enabled us to evaluate the effects of our HCV Protease compounds on HCV RNA replication. Briefly, using the HCV strain 1b sequence described in the Lohmann paper (Assession number: AJ238799), an HCV cDNA was synthesized by Operon Technologies, Inc. (Alameda, Calif.), and the full-length replicon was then assembled in plasmid pGem9zf(+) (Promega, Madison, Wis.) using standard molecular biology techniques. […]
As a secondary assay, EC50 determinations from the replicon FRET assay were confirmed in a replicon luciferase reporter assay. […] Following 4 days in a 37° C./5% CO2 incubator, cells were analyzed for Renilla Luciferase activity using the Promega Dual-Glo Luciferase Assay System. […] Plates were read on a Packard TopCount NXT using a luminescence program.
The percentage inhibition was calculated using the formula below: • % control=average luciferase signal in experimental wells (+compound) • average luciferase signal in DMSO control wells (−compound)
The values were graphed and analyzed using XLfit to obtain the EC50 value.

SMILES: CC(C)(C)OC(=O)N[C@H]1CN(C2CC2)CCC/C=C\C2C[C@@]2(C(=O)NS(=O)(=O)C2CC2)NC(=O)[C@@H]2C[C@@H](Oc3ccccn3)CN2C1=O (stereo partly shown) [Compound 1]
- EC50: 202 nM
